Values after ≈ are worked out from the molar mass of the structure shown. Like-named read-outs stand apart in the source and are kept apart here.
Experiments:
[1] = system: Enterobacterales; experiment: MIC, broth microdilution, CDC/FDA Antibiotic Resistance Isolate Bank (Example 7, Tables 8, 11, 12); type: cell-based; conditions: read-out: MIC
[2] = system: A. baumannii; experiment: MIC, broth microdilution, CDC/FDA Antibiotic Resistance Isolate Bank (Example 7, Tables 9, 13, 14); type: cell-based, Acinetobacter baumannii; conditions: for MIC: Acinetobacter baumannii, read-out: MIC
[3] = MIC distribution, metallo-β-lactamase-producing A. baumannii, inhibitor µg/mL in parentheses

## C[C@H]1[C@H](NC(=O)/C(=N\OC(C)(C)C(=O)O)c2csc(N)n2)C(=O)N1S(=O)(=O)O [Aztreonam, aztreonam]
[1]; Enterobacter cloacae, Enterobacter cloacae KUB No. 5807, AR Bank #501
  MIC: 1 µg/mL (≈ 2.3 µM)
[1]; Enterobacter cloacae, Enterobacter cloacae group, KUB No. 5629, AR Bank # 132
  MIC: 2 µg/mL (≈ 4.59 µM)
[1]; Enterobacter cloacae, KUB No. 5529, AR Bank# 32
  MIC: 32 µg/mL (≈ 73.5 µM)
[1]; Enterobacter cloacae, KUB No. 5557, AR Bank# 60
  MIC: 32 µg/mL (≈ 73.5 µM)
[1]; Enterobacter cloacae, KUB No. 5570, AR Bank # 73
  MIC: 4 µg/mL (≈ 9.19 µM)
[1]; Enterobacter cloacae, KUB No. 5778, AR Bank # 432
  MIC: 32 µg/mL (≈ 73.5 µM)
[1]; Escherichia coli, Escherichia coli KUB No. 5796, AR Bank #452
  MIC: 0.12 µg/mL (≈ 0.276 µM)
[1]; Escherichia coli, Escherichia coli KUB No. 5803, AR Bank #861
  MIC: 1 µg/mL (≈ 2.3 µM)
[1]; Escherichia coli, KUB No. 5552, AR Bank# 55
  MIC: 32 µg/mL (≈ 73.5 µM)
[1]; Escherichia coli, KUB No. 5555, AR Bank# 58
  MIC: 8 µg/mL (≈ 18.4 µM)
[1]; Escherichia coli, KUB No. 5564, AR Bank # 67
  MIC: 4 µg/mL (≈ 9.19 µM)
[1]; Escherichia coli, KUB No. 5566, AR Bank # 69
  MIC: 4 µg/mL (≈ 9.19 µM)
[1]; Escherichia coli, KUB No. 5574, AR Bank # 77
  MIC: 0.06 µg/mL (≈ 0.138 µM)
[1]; Escherichia coli, KUB No. 5578, AR Bank # 81
  MIC: 8 µg/mL (≈ 18.4 µM)
[1]; Escherichia coli, KUB No. 5581, AR Bank # 84
  MIC: 0.5 µg/mL (≈ 1.15 µM)
[1]; Escherichia coli, KUB No. 5582, AR Bank # 85
  MIC: 16 µg/mL (≈ 36.7 µM)
[1]; Escherichia coli, KUB No. 5583, AR Bank # 86
  MIC: 4 µg/mL (≈ 9.19 µM)
[1]; Escherichia coli, KUB No. 5586, AR Bank # 89
  MIC: 16 µg/mL (≈ 36.7 µM)
[1]; Escherichia coli, KUB No. 5615, AR Bank # 118
  MIC: 32 µg/mL (≈ 73.5 µM)
[1]; Escherichia coli, KUB No. 5646, AR Bank # 149
  MIC: 0.5 µg/mL (≈ 1.15 µM)
[1]; Escherichia coli, KUB No. 5647, AR Bank # 150
  MIC: 32 µg/mL (≈ 73.5 µM)
[1]; Escherichia coli, KUB No. 5648, AR Bank # 151
  MIC: 32 µg/mL (≈ 73.5 µM)
[1]; Escherichia coli, KUB No. 5764, AR Bank # 368
  MIC: 0.06 µg/mL (≈ 0.138 µM)
[1]; Escherichia coli, KUB No. 5767, AR Bank # 371
  MIC: 16 µg/mL (≈ 36.7 µM)
[1]; Escherichia coli, KUB No. 5769, AR Bank # 373
  MIC: 16 µg/mL (≈ 36.7 µM)
[1]; Escherichia coli, KUB No. 5770, AR Bank # 374
  MIC: 16 µg/mL (≈ 36.7 µM)
[1]; Escherichia coli, KUB No. 5774, AR Bank # 378
  MIC: 0.12 µg/mL (≈ 0.276 µM)
[1]; Escherichia coli, KUB No. 5779, AR Bank # 433
  MIC: 32 µg/mL (≈ 73.5 µM)
[1]; Escherichia, KUB No. 57, AR Bank # 436 (row cut off)
  MIC: 32 µg/mL (≈ 73.5 µM)
[1]; Klebsiella aerogenes, Enterobacter aerogenes, KUB No. 5559, AR Bank # 62
  MIC: 16 µg/mL (≈ 36.7 µM)
[1]; Klebsiella aerogenes, Enterobacter aerogenes, KUB No. 5571, AR Bank # 74
  MIC: 0.12 µg/mL (≈ 0.276 µM)
[1]; Klebsiella aerogenes, Enterobacter aerogenes, KUB No. 5658, AR Bank # 161
  MIC: 32 µg/mL (≈ 73.5 µM)
[1]; Klebsiella aerogenes, Enterobacter aerogenes, KUB No. 5777, AR Bank # 431
  MIC: 16 µg/mL (≈ 36.7 µM)
[1]; Klebsiella oxytoca, KUB No. 5644, AR Bank # 147
  MIC: 4 µg/mL (≈ 9.19 µM)
[1]; Klebsiella oxytoca, KUB No. 5771, AR Bank # 375
  MIC: 32 µg/mL (≈ 73.5 µM)
[1]; Klebsiella pneumoniae, KUB No. 5531, AR Bank# 34
  MIC: 0.06 µg/mL (≈ 0.138 µM)
[1]; Klebsiella pneumoniae, KUB No. 5573, AR Bank # 76
  MIC: 0.25 µg/mL (≈ 0.574 µM)
[1]; Klebsiella pneumoniae, KUB No. 5623, AR Bank # 126
  MIC: 32 µg/mL (≈ 73.5 µM)
[1]; Klebsiella pneumoniae, KUB No. 5657, AR Bank # 160
  MIC: 0.12 µg/mL (≈ 0.276 µM)
[1]; Klebsiella pneumoniae, Klebsiella pneumoniae KUB No. 5809, AR Bank #504
  MIC: 32 µg/mL (≈ 73.5 µM)
[1]; Morganella morganii, Morganella morganii KUB No. 5824, AR Bank #519
  MIC: 32 µg/mL (≈ 73.5 µM)
[1]; Proteus mirabilis, KUB No. 5556, AR Bank# 59
  MIC: 0.25 µg/mL (≈ 0.574 µM)
[1]; Proteus mirabilis, KUB No. 5652, AR Bank # 155
  MIC: 4 µg/mL (≈ 9.19 µM)
[1]; Proteus mirabilis, KUB No. 5653, AR Bank # 156
  MIC: ≤ 0.03 µg/mL
[1]; Proteus mirabilis, KUB No. 5656, AR Bank # 159
  MIC: ≤ 0.03 µg/mL
[1]; Proteus mirabilis, KUB No. 5773, AR Bank # 377
  MIC: 4 µg/mL (≈ 9.19 µM)
[1]; Proteus mirabilis, KUB No. 5775, AR Bank # 379
  MIC: 0.25 µg/mL (≈ 0.574 µM)
[1]; Providencia rettgeri, KUB No. 5579, AR Bank # 82
  MIC: ≤ 0.03 µg/mL
[1]; Raoultella ornithinolvtica, KUB No. 5631, AR Bank # 134
  MIC: 8 µg/mL (≈ 18.4 µM)
[1]; Serratia marcescens, KUB No. 5588, AR Bank # 91
  MIC: 32 µg/mL (≈ 73.5 µM)
[1]; Serratia marcescens, KUB No. 5618, AR Bank # 121
  MIC: 16 µg/mL (≈ 36.7 µM)
[1]; Serratia marcescens, KUB No. 5619, AR Bank # 122
  MIC: 16 µg/mL (≈ 36.7 µM)
[1]; Serratia marcescens, KUB No. 5620, AR Bank # 123
  MIC: 16 µg/mL (≈ 36.7 µM)
[1]; Serratia marcescens, KUB No. 5621, AR Bank # 124
  MIC: 8 µg/mL (≈ 18.4 µM)
[1]; Serratia marcescens, KUB No. 5627, AR Bank # 130
  MIC: 16 µg/mL (≈ 36.7 µM)
[1]; Serratia marcescens, KUB No. 5628, AR Bank # 131
  MIC: 16 µg/mL (≈ 36.7 µM)
[1]; Serratia marcescens, Serratia marcescens KUB No. 5825, AR Bank #520
  MIC: 2 µg/mL (≈ 4.59 µM)
[2]; A. baumannii KUB No. 5585, AR Bank #88, OXA-64, NDM-1
  MIC: 32 µg/mL (≈ 73.5 µM)
[2]; A. baumannii KUB No. 5714, AR Bank #281, OXA-82
  MIC: 32 µg/mL (≈ 73.5 µM)
[2]; KUB No. 5719, AR Bank #286
  MIC: 32 µg/mL (≈ 73.5 µM)
[2]; KUB No. 5720, AR Bank #287
  MIC: 32 µg/mL (≈ 73.5 µM)
[2]; KUB No. 5727, AR Bank #294
  MIC: 32 µg/mL (≈ 73.5 µM)
[2]; [3]
  Number of isolates at MIC 32 µg/mL: 1
  Number of isolates at MIC >64 µg/mL: 3

From patent publication EP4635500A1, “THERAPEUTIC AGENT FOR BACTERIAL INFECTION” (Sumitomo Pharma Co., Ltd., priority 2022, dated 2024)
